Columns and labels:
[1] = target: Methyl-CpG-binding domain protein 4 (Homo sapiens) (UniProt O95243); conditions: Hit No;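 further: MBD4 activity read as fluorescence at 594 nm from cleavage and release of a quenched duplex DNA oligonucleotide, with APE1 coupled to incise the strand and raise turnover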
Description: Inhibition of MBD4 by quantifying inhibition of MBD4-mediated cleavage and dissociation of quenched duplex DNA oligonucleotides, measured as fluorescence at 594 nm. To generate a functional strand incision and increase turn-over this assay is coupled to APE1.

[2] = target: T1, Adenine DNA glycosylase (Homo sapiens) (UniProt Q9UIF7); conditions: Hit No;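 further: human MUTYH activity read as 594 nm fluorescence from cleavage and release of a quenched DNA duplex, coupled with APE1 for strand incision, lower signal meaning inhibition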
T1 sequence (whole entry): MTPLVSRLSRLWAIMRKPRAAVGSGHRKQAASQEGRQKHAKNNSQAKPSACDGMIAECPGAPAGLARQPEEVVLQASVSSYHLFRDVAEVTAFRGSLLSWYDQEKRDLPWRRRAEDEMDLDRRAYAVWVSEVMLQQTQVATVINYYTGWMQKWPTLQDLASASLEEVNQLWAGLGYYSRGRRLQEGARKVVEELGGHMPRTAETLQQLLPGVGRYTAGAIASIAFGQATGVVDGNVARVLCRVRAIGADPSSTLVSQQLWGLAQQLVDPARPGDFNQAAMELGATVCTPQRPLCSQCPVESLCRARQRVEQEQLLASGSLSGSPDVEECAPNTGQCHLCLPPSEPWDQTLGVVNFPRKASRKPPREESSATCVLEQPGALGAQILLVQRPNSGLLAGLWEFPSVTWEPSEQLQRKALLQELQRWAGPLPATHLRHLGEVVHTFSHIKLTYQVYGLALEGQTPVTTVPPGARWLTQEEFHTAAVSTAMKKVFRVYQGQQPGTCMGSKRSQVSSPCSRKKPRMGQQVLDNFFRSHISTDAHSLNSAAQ
Description: Inhibition of MUTYH by quantifying inhibition of MUTYH-mediated cleavage and dissociation of quenched duplex DNA oligonucleotides, measured as fluorescence at 594 nm. To generate a functional strand incision and increase turn-over this assay is coupled to APE1.

[3] = target: T2, Endonuclease III-like protein 1 (Homo sapiens) (UniProt P78549); conditions: Hit No;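 further: enzyme assay tracking NTHL1 cutting and release of a quenched double-stranded DNA oligo substrate, read as fluorescence at 594 nm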
T2 sequence (whole entry): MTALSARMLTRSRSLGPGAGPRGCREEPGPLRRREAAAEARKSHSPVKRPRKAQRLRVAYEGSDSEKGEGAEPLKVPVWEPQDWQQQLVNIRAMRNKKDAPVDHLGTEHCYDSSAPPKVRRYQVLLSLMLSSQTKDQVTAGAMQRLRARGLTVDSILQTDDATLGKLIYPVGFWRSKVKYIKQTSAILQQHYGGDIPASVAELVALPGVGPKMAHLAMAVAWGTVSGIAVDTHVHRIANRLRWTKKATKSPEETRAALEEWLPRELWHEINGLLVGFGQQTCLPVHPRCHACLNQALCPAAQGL
Description: Inhibition of NTHL1 by quantifying inhibition of NTHL1-mediated cleavage and dissociation of quenched duplex DNA oligonucleotides, measured as fluorescence at 594 nm.

[4] = target: N-glycosylase/DNA lyase (Homo sapiens) (UniProt O15527); conditions: Compound Concentration 10.0 uM;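 further: OGG1 cleavage of a quenched duplex DNA oligonucleotide, coupled to APE1 for strand incision, read as fluorescence at 594 nm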
Description: Inhibition of OGG1 by quantifying inhibition of OGG1-mediated cleavage and dissociation of quenched duplex DNA oligonucleotides, measured as fluorescence at 594 nm. To generate a functional strand incision and increase turn-over this assay is coupled to APE1.

[5] = target: G/T mismatch-specific thymine DNA glycosylase (Homo sapiens) (UniProt Q13569); conditions: Hit No;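 further: human TDG cleavage of quenched duplex DNA oligonucleotides coupled to APE1, strand release read as fluorescence at 594 nm, inhibition of TDG activity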
Description: Inhibition of TDG by quantifying inhibition of TDG-mediated cleavage and dissociation of quenched duplex DNA oligonucleotides, measured as fluorescence at 594 nm. To generate a functional strand incision and increase turn-over this assay is coupled to APE1.

[6] = target: Uracil-DNA glycosylase (Homo sapiens) (UniProt P13051); conditions: Hit No;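 further: UNG excision on a quenched double-stranded DNA oligo probe, with APE1 added for strand incision and turnover, read as fluorescence at 594 nm as strands separate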
Description: Inhibition of UNG by quantifying inhibition of UNG-mediated cleavage and dissociation of quenched duplex DNA oligonucleotides, measured as fluorescence at 594 nm. To generate a functional strand incision and increase turn-over this assay is coupled to APE1.

[7] = target: Endonuclease 8-like 1 (Homo sapiens) (UniProt Q96FI4); conditions: Hit No;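 further: fluorescence at 594 nm from quenched duplex DNA oligonucleotides released by NEIL1 cleavage and strand separation, reported as reduction of this enzyme activity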
Description: Inhibition of NEIL1 by quantifying inhibition of NEIL1-mediated cleavage and dissociation of quenched duplex DNA oligonucleotides, measured as fluorescence at 594 nm.

[8] = target: T3, Endonuclease 8-like 2 (Homo sapiens) (UniProt Q969S2); conditions: Hit No;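 further: fluorescence at 594 nm reports NEIL2 cutting and release of a quenched double-stranded DNA oligo substrate, reduced signal read as inhibition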
T3 sequence (whole entry): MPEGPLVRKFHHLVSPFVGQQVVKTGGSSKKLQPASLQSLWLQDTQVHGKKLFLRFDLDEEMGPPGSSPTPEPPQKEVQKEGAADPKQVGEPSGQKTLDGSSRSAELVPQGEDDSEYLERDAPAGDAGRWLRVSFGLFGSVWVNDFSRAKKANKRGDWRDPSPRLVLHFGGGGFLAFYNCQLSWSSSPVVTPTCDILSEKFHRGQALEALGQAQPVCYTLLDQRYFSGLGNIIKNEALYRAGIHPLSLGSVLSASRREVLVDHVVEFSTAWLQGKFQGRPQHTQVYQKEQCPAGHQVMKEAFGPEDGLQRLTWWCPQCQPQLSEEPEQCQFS
Description: Inhibition of NEIL2 by quantifying inhibition of NEIL2-mediated cleavage and dissociation of quenched duplex DNA oligonucleotides, measured as fluorescence at 594 nm.

[9] = target: T4, Single-strand selective monofunctional uracil DNA glycosylase (Homo sapiens) (UniProt Q53HV7); conditions: Hit No;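 further: enzymatic SMUG1 assay coupled with APE1, reading fluorescence at 594 nm released when a quenched double-stranded DNA oligonucleotide substrate is cleaved and separated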
T4 sequence (whole entry): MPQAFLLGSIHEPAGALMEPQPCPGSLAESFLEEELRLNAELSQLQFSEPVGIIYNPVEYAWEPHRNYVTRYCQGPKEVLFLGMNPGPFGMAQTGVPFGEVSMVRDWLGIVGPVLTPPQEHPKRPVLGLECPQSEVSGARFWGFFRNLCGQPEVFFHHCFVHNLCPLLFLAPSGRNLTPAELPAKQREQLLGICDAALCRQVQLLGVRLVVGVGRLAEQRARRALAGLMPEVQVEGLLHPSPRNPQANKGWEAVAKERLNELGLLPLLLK
Description: Inhibition of SMUG1 by quantifying inhibition of SMUG1-mediated cleavage and dissociation of quenched duplex DNA oligonucleotides, measured as fluorescence at 594 nm. To generate a functional strand incision and increase turn-over this assay is coupled to APE1.

Chain of N-glycosylase/DNA lyase (Homo sapiens) (O15527 whole entry): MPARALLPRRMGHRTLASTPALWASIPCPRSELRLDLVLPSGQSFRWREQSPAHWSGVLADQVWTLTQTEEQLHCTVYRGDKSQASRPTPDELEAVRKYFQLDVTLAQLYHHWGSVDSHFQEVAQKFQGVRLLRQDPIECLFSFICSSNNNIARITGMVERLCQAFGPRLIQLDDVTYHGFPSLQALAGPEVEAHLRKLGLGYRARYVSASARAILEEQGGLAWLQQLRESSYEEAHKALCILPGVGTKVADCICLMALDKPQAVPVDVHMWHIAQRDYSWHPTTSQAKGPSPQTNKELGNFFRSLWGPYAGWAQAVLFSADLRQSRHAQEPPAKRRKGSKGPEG
Chain of Methyl-CpG-binding domain protein 4 (Homo sapiens) (O95243 whole entry, the tested form may be a part): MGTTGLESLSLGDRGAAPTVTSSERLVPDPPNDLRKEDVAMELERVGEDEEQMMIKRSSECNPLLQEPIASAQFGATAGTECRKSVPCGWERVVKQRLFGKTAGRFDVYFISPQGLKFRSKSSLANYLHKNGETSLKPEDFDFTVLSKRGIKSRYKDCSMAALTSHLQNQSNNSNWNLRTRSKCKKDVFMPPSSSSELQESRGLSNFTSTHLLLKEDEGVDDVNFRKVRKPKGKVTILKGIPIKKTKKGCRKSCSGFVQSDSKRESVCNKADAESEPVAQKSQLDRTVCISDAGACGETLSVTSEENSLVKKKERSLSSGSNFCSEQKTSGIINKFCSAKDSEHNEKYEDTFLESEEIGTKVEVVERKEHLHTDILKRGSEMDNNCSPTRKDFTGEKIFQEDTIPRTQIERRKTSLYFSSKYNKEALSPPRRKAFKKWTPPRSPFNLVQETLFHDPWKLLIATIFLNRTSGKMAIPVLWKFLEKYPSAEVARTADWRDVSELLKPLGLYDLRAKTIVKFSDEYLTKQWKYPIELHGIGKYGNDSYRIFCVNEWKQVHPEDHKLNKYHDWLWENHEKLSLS
Chain of G/T mismatch-specific thymine DNA glycosylase (Homo sapiens) (Q13569 whole entry): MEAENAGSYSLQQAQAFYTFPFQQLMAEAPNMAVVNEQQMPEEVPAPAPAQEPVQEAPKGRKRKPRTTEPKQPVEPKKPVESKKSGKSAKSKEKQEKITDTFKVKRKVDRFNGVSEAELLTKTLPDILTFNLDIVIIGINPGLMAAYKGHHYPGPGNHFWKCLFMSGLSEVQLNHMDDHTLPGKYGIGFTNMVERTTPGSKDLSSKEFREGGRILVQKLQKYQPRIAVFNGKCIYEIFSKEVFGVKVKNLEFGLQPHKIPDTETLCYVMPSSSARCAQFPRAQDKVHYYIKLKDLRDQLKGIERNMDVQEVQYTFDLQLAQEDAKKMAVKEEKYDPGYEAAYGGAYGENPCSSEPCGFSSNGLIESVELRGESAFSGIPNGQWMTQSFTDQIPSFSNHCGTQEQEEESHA
Chain of Uracil-DNA glycosylase (Homo sapiens) (P13051 whole entry): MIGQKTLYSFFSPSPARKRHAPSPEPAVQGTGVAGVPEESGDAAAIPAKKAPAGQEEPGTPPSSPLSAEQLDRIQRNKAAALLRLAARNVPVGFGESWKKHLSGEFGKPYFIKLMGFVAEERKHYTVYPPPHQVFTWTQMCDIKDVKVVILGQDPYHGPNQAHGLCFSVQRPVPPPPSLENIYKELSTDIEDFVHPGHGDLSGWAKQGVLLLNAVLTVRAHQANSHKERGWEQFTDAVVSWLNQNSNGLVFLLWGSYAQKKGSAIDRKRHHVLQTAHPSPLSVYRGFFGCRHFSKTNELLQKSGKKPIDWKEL
Chain of Endonuclease 8-like 1 (Homo sapiens) (Q96FI4 whole entry): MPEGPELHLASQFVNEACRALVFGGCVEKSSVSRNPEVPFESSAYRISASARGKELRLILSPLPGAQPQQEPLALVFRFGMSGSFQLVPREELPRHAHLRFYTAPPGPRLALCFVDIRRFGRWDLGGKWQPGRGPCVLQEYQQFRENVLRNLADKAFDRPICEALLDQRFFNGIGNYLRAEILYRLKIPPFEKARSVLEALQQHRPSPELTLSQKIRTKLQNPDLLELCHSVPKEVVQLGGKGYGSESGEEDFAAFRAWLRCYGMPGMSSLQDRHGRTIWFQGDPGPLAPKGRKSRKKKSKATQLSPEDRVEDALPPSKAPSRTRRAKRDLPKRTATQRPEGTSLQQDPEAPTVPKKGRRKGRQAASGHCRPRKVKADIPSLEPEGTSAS

Compound | inhibition ([1]; Compound Concentration 10.0 uM) [%] | inhibition ([2]; Compound Concentration 10.0 uM) [%] | inhibition ([3]; Compound Concentration 10.0 uM) [%] | inhibition ([4]; Hit No) [%] | inhibition ([5]; Compound Concentration 10.0 uM) [%] | inhibition ([6]; Compound Concentration 10.0 uM) [%] | inhibition ([4]; Hit Yes) [%] | inhibition ([7]; Compound Concentration 10.0 uM) [%] | inhibition ([8]; Compound Concentration 10.0 uM) [%] | inhibition ([9]; Compound Concentration 10.0 uM) [%] | inhibition ([1]; Compound Concentration 1.0 uM) [%] | inhibition ([2]; Compound Concentration 1.0 uM) [%] | inhibition ([8]; Compound Concentration 1.0 uM) [%] | inhibition ([3]; Compound Concentration 1.0 uM) [%] | inhibition ([9]; Compound Concentration 1.0 uM) [%] | inhibition ([5]; Compound Concentration 1.0 uM) [%] | inhibition ([6]; Compound Concentration 1.0 uM) [%] | inhibition ([7]; Compound Concentration 1.0 uM) [%]
c1ccc(N2CCN(Cc3nc4ccccc4[nH]3)CC2)nc1 | 29.2 | 2.22 | 0.934 | -5.49 | 29.5 | -4.15 |  |  |  |  |  |  |  |  |  |  |  | 
CC#CC(=O)N1CCC[C@H]1c1nc(-c2ccc(C(=O)Nc3ccccn3)cc2)c2c(N)nccn12 | -0.914 | 0.794 | -7.58 | 1.98 | 55.9 | 4.65 |  |  |  |  |  |  |  |  |  |  |  | 
N#Cc1c(N)nc(SCc2csc(-c3ccc(Cl)cc3)n2)c(C#N)c1-c1ccc(OCCO)cc1 | -6.16 | 7.45 | 4.7 |  | 6.03 | -1.02 | 55.1 |  |  |  |  |  |  |  |  |  |  | 
Cn1cc(-n2cnc3c(NCc4nc5cc(Cl)c(Cl)cc5[nH]4)nc(N4CCOCC4)nc32)cn1 | 6.19 | 9.84 | -7.58 |  | 40.7 | 3.73 |  | 6.21 | 1.04 | 25.7 |  |  |  |  |  |  |  | 
CN(C)CCOc1ccc(-c2nc(-c3ccncc3)c(-c3ccc4c(c3)CC/C4=N\O)[nH]2)cc1 | 23.9 | 0.369 | 11.2 |  | 47.4 | 11.4 |  | 1.19 | 26.4 | -6.49 |  |  |  |  |  |  |  | 
Cc1cccc(CCN2CCC(C(=O)c3ccc(NS(C)(=O)=O)cc3)CC2)n1 | -1.99 | -5.27 | 0.568 |  | 11.1 | -5.19 |  | 0.158 | -4.17 | -8.55 |  |  |  |  |  |  |  | 
O=c1ccc2ccc(OCCCCN3CCN(c4cccc5sccc45)CC3)cc2[nH]1 | -1.94 | 3.6 | 4.86 | -3.25 | -1.81 |  |  | 6.47 | -1.98 | -9.19 |  |  |  |  |  |  |  | 
CC(C)(C)c1cc(NC(=O)Nc2ccc(-c3cn4c(n3)sc3cc(OCCN5CCOCC5)ccc34)cc2)no1 |  |  |  |  |  |  |  |  |  |  | 0.784 | 11.2 | 1.85 | -3.4 | 19.8 | 37.3 | 1.47 | 5.55
COc1ccc(NC(=O)[C@@H]2C[C@H](C)CC[C@H]2C(C)C)cc1 | 1.36 | -7.01 | 15.4 |  | -1.07 | -3.01 |  | -2.36 | -3.15 | 11.3 |  |  |  |  |  |  |  | 
CN1C2CCCC1CC(Nc1ccccc1Br)C2 (stereo not given) | 11.1 | 6.82 | 24.5 |  | -8.71 | -6.41 |  | -3.4 | -3.41 | -9 |  |  |  |  |  |  |  | 
O=C1c2cccc3c2[C@H](CCC3)CN1[C@@H]1CN2CCC1CC2 | 0.552 | -5.22 | 3.04 |  | 0.841 | -7.93 |  | -2.96 |  | -4.7 |  |  |  |  |  |  |  | 
Clc1ccc(OC[C@H]2CCN2)cn1 | -2.21 | -6.13 | 5.52 | -5.75 |  | -3.96 |  | -0.584 | -6.72 |  |  |  |  |  |  |  |  | 
Cc1nc(N2CC[C@@H](O)C2)ncc1-c1cc(C(F)(F)F)cc2[nH]ncc12 | 58.5 | -2.45 | -5.89 |  | 48 | -1.48 |  |  |  | 10.3 |  |  |  |  |  |  |  | 
N[C@@H](Cc1cc(I)c(Oc2ccc(O)c(I)c2)c(I)c1)C(=O)O | 68.9 | 10.3 | -3.92 | 4.51 | 102 | 5.16 |  | -7.26 |  |  |  |  |  |  |  |  |  | 
Cc1cc(NC(=O)c2cccc(S(F)(F)(F)(F)F)c2)cc(-n2ccn3nc(-c4cccnc4)cc23)c1 | 4.59 |  | 7.92 |  | 17.7 | 0.948 |  |  | -7.89 | 3.64 |  | 16 |  | -2 | 19.3 | 54.6 | 1.8 | 
N[C@@]1(C(=O)O)CO[C@H]2[C@H](C(=O)O)[C@H]21 | 10.3 | 10.7 | 24.5 |  | 9.39 | -8.59 |  | -2.51 | -7.74 | 2.42 |  |  |  |  |  |  |  | 

Now from value to compound:

inhibition ([1]; Compound Concentration 10.0 uM) [%] | inhibition ([2]; Compound Concentration 10.0 uM) [%] | inhibition ([3]; Compound Concentration 10.0 uM) [%] | inhibition ([4]; Hit No) [%] | inhibition ([5]; Compound Concentration 10.0 uM) [%] | inhibition ([6]; Compound Concentration 10.0 uM) [%] | inhibition ([4]; Hit Yes) [%] | inhibition ([7]; Compound Concentration 10.0 uM) [%] | inhibition ([8]; Compound Concentration 10.0 uM) [%] | inhibition ([9]; Compound Concentration 10.0 uM) [%] | inhibition ([1]; Compound Concentration 1.0 uM) [%] | inhibition ([2]; Compound Concentration 1.0 uM) [%] | inhibition ([8]; Compound Concentration 1.0 uM) [%] | inhibition ([3]; Compound Concentration 1.0 uM) [%] | inhibition ([9]; Compound Concentration 1.0 uM) [%] | inhibition ([5]; Compound Concentration 1.0 uM) [%] | inhibition ([6]; Compound Concentration 1.0 uM) [%] | inhibition ([7]; Compound Concentration 1.0 uM) [%] | Compound
-9.49 | 7.44 | -6.14 |  | 4.82 |  |  | 0.834 | -1.98 | -1.58 |  |  |  |  |  |  |  |  | Cc1ccccc1N1CCN(CCc2nnc3n2CCCC3)CC1
 |  |  |  |  |  |  |  |  |  | 43.9 | 11.7 | 3.69 | -0.432 | 20.7 | 54.4 | 4.99 |  | Cc1c[nH]c2nccc(Oc3c(F)cc(Nc4cc(Cl)nc(N)n4)cc3F)c12
10.2 | 3.09 | 17.1 | -5.28 | 9.87 | -1.95 |  | 11 | 7.55 |  |  |  |  |  |  |  |  |  | COc1ccccc1S(=O)(=O)Nc1ccc(C)cc1Oc1ccc2c(N)nccc2c1
-3.9 | 2.74 | -0.61 |  | 40.3 | -0.0214 |  | 4.76 | 0.236 | 13.9 |  |  |  |  |  |  |  |  | CC(C)C(=O)Nc1n[nH]c2cc(-c3cccc(NS(=O)(=O)C4CC4)c3)ccc12
-9.61 | 34.3 | 1.92 | -4.35 | 0.584 |  |  | 0.537 | 1.76 |  |  |  |  |  |  |  |  |  | CCCCC(=O)N(Cc1ccc(-c2ccccc2-c2nnn[nH]2)cc1)[C@H](C(=O)O)C(C)C
-5.88 | -8.57 | -9.83 |  | 24.5 | 8.95 |  |  | 12.5 | 8.81 |  |  |  |  |  |  |  |  | COc1cc(-c2cn([C@H]3CCc4ccccc4N(CC(F)(F)F)C3=O)nn2)ccc1-n1ccc(C)n1
9.96 | 10.6 | -2 |  | 48.4 | 9.96 |  | 0.666 | -5.96 | 24.9 |  |  |  |  |  |  |  |  | CNc1ncc2cc(-c3ccc(-c4ncccc4F)cc3Cl)c(=O)n(C[C@H]3OC[C@H](N)CO3)c2n1
 |  |  |  |  |  |  |  |  |  | 15.4 | 6.26 |  | -6.19 | 26.8 | 50 | 5.21 | -0.655 | C[C@@H](Oc1cc(-n2cnc3ccc(CN4CCN(C)CC4)cc32)sc1C(N)=O)c1ccccc1C(F)(F)F
9.67 | 8.4 | 14.6 | -2.03 | 8.08 | -2.47 |  | 7.27 | 2.2 |  |  |  |  |  |  |  |  |  | H-LVVYPWT-OH
 |  |  |  |  |  |  |  |  |  | 18.6 | 8.56 | 2.93 | -4.79 | 12.2 | 44.4 | -0.67 | 8.59 | Cc1cc(F)c(C(=O)Nc2cccc(-c3nncn3C(C)C)n2)cc1-n1cnc(C2CC2)c1

— ChEMBL document CHEMBL5665443, “Enzyme Inhibitor Single Concentration assay results for EUbOPEN Chemogenomics Library” (2024)
